The values below come from patent publication US20050070596A1, “Methods for treatment of inflammatory diseases using CT-3 or analogs thereof” (priority 2003, published 2005).

One data set relates to TPA-induced erythema. As to conditions: applied topically; cited from earlier work.
The conditions of data set [1]: in vivo; cited from earlier work.
Another data set addresses CB2 (Homo sapiens, UniProt P34972). As to conditions: cited from earlier work.
Another data set concerns Legionella. As to conditions: mouse, in vivo; cited from earlier work.
In data set [2] the test system is mouse peritoneal macrophages activated by LPS and IFNγ. As to conditions: cited from earlier work.
The next data set concerns human leukocytes. As to conditions: cited from earlier work; for IFNγ synthesis: high concentrations (5-24µg/ml); for IFNγ production: low concentrations.
The subject of data set [3] is mRNA of IL-1, IL-6 and TNFα. As to conditions: BALB/C mice injected with cannabidiol; cited from earlier work.
The subject of the next data set is PBQ-induced writhing. As to conditions: given orally at doses up to 10 mg/kg; cited from earlier work.
In data set [4] the test system is levadopa-induced dyskinesia in Parkinson's disease. As to conditions: in vivo; cited from earlier work.
The test system of the next data set is people with chronic pain. As to conditions: oral; chronic pain (n=60), those with MS; cited from earlier work.
In data set [5] the test system is mouse experimental model of multiple sclerosis. As to the kind of experiment: inhibition of spasticity in a mouse experimental model of multiple sclerosis. Format: in vivo. As to conditions: for spasticity (limb stiffness assessed by the force required to bend the limb): ***P<0.001 compared to baseline. As for the experimental part: FIG. 7 illustrates cannabinoid-mediated inhibition of spasticity in a mouse experimental model of multiple sclerosis^35. Compounds were injected intravenously (i.v.) and the level of THC (1 mg/kg i.v.) was matched to the THC content in a cannabis extract (obtained under UK Home Office Licence). […] Nabilone (1 mg/kg i.v.) a synthetic analogue of THC (generously supplied by Cambridge Biomedicals, Cesamet) could inhibit spasticity to maximal levels (˜45-50% inhibition). Mean change compared to baseline (n=10/group)

In data set [6] the test system is tics in Tourette's syndrome. As to conditions: oral; cited from earlier work.
The target of a further data set is CB1 receptors (Homo sapiens, UniProt P21554). As to conditions: cited from earlier work.
Another data set deals with head trauma. As to conditions: phase II; cited from earlier work.
Another data set deals with NMDA receptor. As to conditions: cited from earlier work.
The test system of the next data set is MS patients. As to conditions: within one month after initiation of treatment; cited from earlier work.

Sequence of CB2 (P34972 whole entry, species assumed): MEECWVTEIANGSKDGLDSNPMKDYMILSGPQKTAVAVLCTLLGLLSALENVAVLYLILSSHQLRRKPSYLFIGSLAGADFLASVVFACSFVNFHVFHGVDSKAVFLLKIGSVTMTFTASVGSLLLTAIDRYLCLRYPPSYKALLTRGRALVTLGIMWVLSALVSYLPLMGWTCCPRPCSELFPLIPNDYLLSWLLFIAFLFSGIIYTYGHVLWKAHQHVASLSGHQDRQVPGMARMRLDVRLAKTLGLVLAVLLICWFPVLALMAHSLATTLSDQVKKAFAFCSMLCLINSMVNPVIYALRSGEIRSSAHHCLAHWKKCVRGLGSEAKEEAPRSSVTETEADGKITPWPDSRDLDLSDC
Sequence of CB1 receptors (P21554 whole entry): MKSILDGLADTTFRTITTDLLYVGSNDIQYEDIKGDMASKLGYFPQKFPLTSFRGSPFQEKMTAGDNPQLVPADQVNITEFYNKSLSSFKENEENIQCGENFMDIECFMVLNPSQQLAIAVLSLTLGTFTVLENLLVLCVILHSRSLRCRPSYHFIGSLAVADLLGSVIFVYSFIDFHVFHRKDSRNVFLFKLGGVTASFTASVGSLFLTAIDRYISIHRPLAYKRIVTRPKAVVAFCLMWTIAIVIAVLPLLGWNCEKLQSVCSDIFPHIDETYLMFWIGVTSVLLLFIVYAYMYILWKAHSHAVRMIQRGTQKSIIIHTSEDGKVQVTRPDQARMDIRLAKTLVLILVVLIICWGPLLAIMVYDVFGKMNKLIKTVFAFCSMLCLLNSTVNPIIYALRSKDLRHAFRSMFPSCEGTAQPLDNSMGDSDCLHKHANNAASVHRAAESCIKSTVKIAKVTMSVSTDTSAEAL

As to `C=C(C)[C@@H]1CCC(C)=C[C@H]1c1c(O)cc(CCCCC)cc1O` [Cannabidiol], the TPA-induced erythema result with TPA-induced erythema was “reduce”. Besides, the psychoactivity result in data set [1] is listed as “no psychotropic”. On CB2, the “binding to CB2 receptor” value is on record as “does not bind”. The mortality result with Legionella is given as “not affected”. Moreover, the “nitric oxide (NO) production” value in data set [2] is on record as “inhibited”. In the data set on human leukocytes, the IL-1 production entry is recorded as “decreased”, the IL-2 secretion entry is given as “did not affect”, the TNFα production entry is listed as “decreased” and the IFNγ synthesis entry is given as “completely blocked”. In addition, the IFNγ production entry in the data set with human leukocytes was “increase”. For the same molecule, the “level of mRNA of IL-1, IL-6 and TNFα” value in data set [3] is “did not show significant change”. The PBQ-induced writhing result in the data set on PBQ-induced writhing is listed as “inhibited”.
The term inhibition denotes the percentage by which the read-out fell short of the control. Take `CCCCCCC(C)(C)c1cc(O)c2c(c1)OC(C)(C)C1CCC(=O)CC21` (stereo not drawn) [Nabilone]: in [4], the levadopa-induced dyskinesia entry was “inhibit”. For the same molecule, the “MS patients reporting some analgesic effect” value with people with chronic pain was “six of 16”. This molecule displayed an inhibition at 1 mg/kg in data set [5] (Mus musculus, iv, 1 mg/kg i.v., mean change compared to baseline, maximal levels) of 45 to 50%.
As to `CCCCCc1cc(O)c2c(c1)OC(C)(C)[C@@H]1CCC(C)=C[C@@H]21` [THC, delta 9 tetrahydrocannabinol], in data set [6], the tics result is reported as “can inhibit tics”. For the same molecule, the “nitric oxide (NO) production” value in data set [2] is on record as “inhibited”. Further, in the data set with human leukocytes, the IFNγ synthesis entry is on record as “completely blocked” and the IFNγ production entry is on record as “increase”. For the same molecule, the “inhibition of spasticity” value in data set [5] (THC 1 mg/kg i.v.) is recorded as “capacity to induce maximal inhibition of spasticity”.
Consider `CCCCCCC(C)(C)c1cc(O)c2c(c1)OC(C)(C)[C@@H]1CC=C(C(=O)O)C[C@@H]21` [ajulemic acid], for which the cannabimimetic effects result in [1] is on record as “dose not induce cannabimimetic effects”. In addition, the “direct stimulation of CB1 receptors” value on CB1 receptors is listed as “does not directly stimulate CB1 receptors to a significant extent”. The “spasticity (limb stiffness assessed by the force required to bend the limb)” value in data set [5] was “inhibits spasticity”; in data set [5] (listed as Ajulemic acid), “anti-spastic”.
Take `CCCCCCC(C)(C)c1cc(O)c2c(c1)OC(C)(C)[C@H]1CC=C(CO)C[C@H]21` [dexanabinol]: in the data set on head trauma, the “efficacy in head trauma” value is given as “some efficacy”. Also, the NMDA receptor activity result with NMDA receptor is “NMDA receptor antagonist”.

B1: IFN-.gamma.: cytokine administered in attempts to alleviate the symptoms of MS (protein, UniProt P01579 24-161, looked up)
Interferon gamma: QDPYVKEAENLKKYFNAGHSDVADNGTLFLGILKNWKEESDRKIMQSQIVSFYFKLFKNFKDDQSIQKSVETIKEDMNVKFFNSNKKKRDDFEKLTNYSVTDLNVQRKAIHELIQVMAELSPAAKTGKRKRSQMLFRG
Regarding B1, the “patients with clinical exacerbation” value in the data set with MS patients is given as 7 of 18.
